Entries after “also recorded” stand apart in the source; their conditions may differ.
B1: Spexin (peptide, UniProt Q9BT56 27-116, looked up)
Spexin: APQRLLERRNWTPQAMLYLKGAQGRRFISDQSRRKDLSDRPLPERRSPNPQLLTIPEAATILLASLQKSPEDEEKNFDQTRFLEDSLLNW
modifications: Spexin
notes: endogenous peptide ligand of Galr2 and Galr3; synthesized by AnyGen

Legend:
Galr2 [1] = assay: Galr2 internalization assay based on HiBiT technology; assay type: cell-based, human; details: HEK293 cells; agonist 30 min; two independent experiments in triplicate
Procedure: The HiBiT protein tagging system, like NanoBiT technology, consists of two subunits: the large fragment (LgBiT) with 156 amino acids and the small fragment of Nluc (SmBiT-High-affinity) with only 11 amino acids that has a very high affinity to LgBit. To quantify Galr2 at the cell surface, cells expressing Galr2 tagged with the SmBiT-High-affinity were treated with cell-impermeable LgBiT along with the Nluc substrate furimazine. SmBiT-High-affinity-Galr2 on the cell surface binds to LgBiT which produces a luminescent signal, while SmBiT-High-affinity-Galr2 inside the cells cannot bind to LgBiT (Fig. 4a).
Fig. 4 Internalization of Galr2. a Schematic representation of the internalization assay. […] Before ligand stimulation, cells were pretreated with 30 μM Cmpd101 (a GRK2/3 inhibitor) for 30 min, 25 μM PitStop 2 (a Clathrin inhibitor) for 15 min, and 80 μM Dynasore (a Dynamin inhibitor) for 40 min. […] Remaining cell surface receptors were determined by measuring the luminescent signal produced by the binding between LgBiT and the Galr2-SmBiT-High affinity. Each data point represents mean ± s. e. m. of two independent experiments performed in triplicate
Quantification of bias between each pathway was performed using Galanin as a reference ligand. All incubations for the different signaling assays were performed in serum-free medium to prevent peptide degradation.
Internalization assays were performed using the Nano-Glo HiBiT extracellular detection system acquired from Promega Corporation (Cat. No. N2421). The day before transfection, HEK293 cells were seeded in 96-well plates at a density of 2.5 × 10^4 cells per well. The following day, cells were transfected with a mixture prepared containing 0.5 ng of SmBiT-high-affinity-Galr2 construct and 0.2 μl Lipofectamine 2000 (Invitrogen) added to each well. […] Then luminescence values were recorded immediately (Synergy 2 Multi-Mode Microplate Reader BioTek). […]

Galr2 [2] = assay: Total inositol phosphate production; assay type: cell-based, human; details: for Log(τ/KA), Total inositol phosphate: HEK293 cells, human Galr2, 40 min at 37 °C, operational model (Eq. 2)
Source text: Galr2 is primarily coupled to the Gαq-protein which activates the phospholipase C/protein kinase C pathway for inositol phosphate production. We measured G-protein activation in HEK293 cells transiently expressing Galr2, using the serum response element-luciferase (SRE-Luc) gene reporter assay[10],[37] and for a more specific monitoring of Gαq-protein activity we also measured total inositol phosphate production. […] However, some differences were observed between SRE-Luc activity and total inositol phosphate production in the rank order of potency of the tested ligands. […] Phosphorylation of extracellular signal-regulated protein kinases 1 and 2 (pErk1/2) is either G-protein or β-arrestin dependent. To distinguish Gαq-protein- and β-arrestin1/2-dependent Erk1/2 signaling, we examined ligand-stimulated Erk1/2 phosphorylation in three different HEK293 cell lines, wild type, Gαq/11-knockout, and β-arrestin1/2-knockout cells. All three ligands induced high levels of Erk1/2 phosphorylation dose-dependently in wild-type HEK293 cells.
Fig. 5 Galr2 agonists display different Gαq-protein-dependent signaling and pErk1/2. The ability of increasing concentrations of agonists to induce a SRE-Luc activity and b total inositol phosphate production. c Representative western blot showing ligand-induced phosphorylation of Erk1/2 from wild-type (HEK293 WT), Gαq/11-, and β-arrestin1/2-knockout HEK293 cells expressing Galr2 (original blots are presented in Supplementary Figure 4). pErk1/2 and total Erk levels were determined at 5 min after stimulation of different concentrations of three ligands. Western blot band intensities corresponding to each concentration were quantified using Image studio ^TM Software. […] Data are the mean ± s.e.m. values of two independent experiments
Galr2 activation was monitored using measurement of total inositol phosphate (IP + IP2 + IP3) production in HEK293 cells expressing human Galr2. For this assay, cells were seeded in 12-well plates at a density of 2.5 × 10^5 cells per well. The next day, the cells were transiently transfected with 1 μg/well plasmid containing human Galr2, using the Lipofectamine 2000 (Invitrogen) transfection reagent. The day after transfection, the cells were incubated in M199 medium containing 1% FBS, 1% L-glutamine, 1% penicillin/streptomycin, and 1 μCi/well myo-^3H inositol for 20 h. After a 30-min incubation in buffer A (140 mM NaCl, 20 mM Hepes, 4 mM KCl, 8 mM D-glucose, 1 mM MgCl2, 1 mM CaCl2, 1 mg/ml free fatty acid bovine serum albumin, and 10 mM LiCl at pH 7.2), the cells were exposed to the agonist for 40 min at 37 °C. […] The radioactivity of the samples was measured using a TRI carb 3100TR liquid scintillation analyzer (Packard).

Galr2 [3] = details: cited from earlier work
Source text: (§1) G-protein-coupled receptors (GPCRs) are the largest family of cell surface receptors that communicate extracellular stimuli to the cell interior[1]. Biased ligands are of particular interest because they offer the possibility to design a novel class of therapeutic agents. In some GPCRs, biased ligands that preferentially activate G-protein-dependent signaling have therapeutic potential. […] Most descriptions of biased ag ...

[4] = tested on: galanin receptor 3 (Galr3); details: cited from earlier work
Source text: as §1

[5] = mean ± s.e.m. of three experiments in triplicate

Molecule	Galr2 internalization (decrease of cell-surface luminescent signal) (Galr2 [1])	Log(τ/KA), Total inositol phosphate (Galr2 [2]; [5])	ΔLog(τ/KA), Total inositol phosphate (Galr2 [2]; normalized to Galanin (reference agonist), in parenthesis, mean ± s.e.m. of three experiments in triplicate)	affinity toward Galr2 (Galr2 [3])	affinity toward Galr3 [4]	efficacy in total inositol phosphate production (Galr2 [2]; HEK293 cells transiently expressing Galr2)	activation of Galr2 (Galr2 [3])	activation of Galr3 [4]
Galanin [reference compound]	significantly decreased the luminescent signal in a dose-dependent manner; also recorded: efficiently induced internalization in a dose-dependent manner	4.20 ± 0.03	0.00 ± 0.02	high affinities	low affinity	–	–	–
B1	marginally induce internalization of the receptor; also recorded: Galr2 internalization was not detected; also recorded: did not detect Galr2 internalization	4.40 ± 0.03	–	–	–	substantially higher efficacy	activates Galr2 and Galr3 with high affinities	activates Galr2 and Galr3 with high affinities
